Earlier results, collected in patent US6972176B2, “KVLQT1—a long QT syndrome gene” (University of Utah Research Foundation, priority 1995, dated 2005).

Target: T1, IKs in isolated myocytes (Cavia porcellus, UniProt O70344)
T1 construct: host or cells: isolated cardiac myocytes
T1 sequence (O70344 1-671): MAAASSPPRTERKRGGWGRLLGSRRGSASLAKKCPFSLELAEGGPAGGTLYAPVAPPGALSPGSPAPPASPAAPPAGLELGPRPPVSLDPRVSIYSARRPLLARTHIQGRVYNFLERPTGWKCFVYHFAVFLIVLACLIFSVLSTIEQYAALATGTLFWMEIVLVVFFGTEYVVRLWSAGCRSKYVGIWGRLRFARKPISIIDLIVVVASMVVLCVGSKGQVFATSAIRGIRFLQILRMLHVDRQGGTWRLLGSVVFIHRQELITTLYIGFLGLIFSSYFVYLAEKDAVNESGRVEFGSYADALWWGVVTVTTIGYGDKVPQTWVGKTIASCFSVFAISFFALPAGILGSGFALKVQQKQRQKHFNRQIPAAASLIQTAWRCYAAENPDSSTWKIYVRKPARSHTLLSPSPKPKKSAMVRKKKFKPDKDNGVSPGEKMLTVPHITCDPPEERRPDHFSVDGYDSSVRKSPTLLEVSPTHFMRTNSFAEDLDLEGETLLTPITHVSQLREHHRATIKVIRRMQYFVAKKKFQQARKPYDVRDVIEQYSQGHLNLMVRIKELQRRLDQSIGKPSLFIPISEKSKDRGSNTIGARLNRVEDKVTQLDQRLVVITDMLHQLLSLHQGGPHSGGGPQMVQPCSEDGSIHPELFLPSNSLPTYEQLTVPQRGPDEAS
Conditions: Balser et al, 1991

- block of IKs: 40-50%
SMILES: C=C[C@H]1C[N@@]2CC[C@H]1C[C@@H]2[C@@H](O)c1ccnc2ccc(OC)cc12 [Quinidine]
